Data set [1] can be described thus: In vivo pharmacokinetics in dogs (i.v.). The settings on record: Dog/female/Beagle, 0.3 mg/kg i.v., PEG400 50% + Water 40% + EtOH 10%. As to the method: (§1) For in vivo pharmacokinetic experiments test compounds were administered to female CD-1 mice, male Wistar rats, Beagle dogs or Cynomolgus monkeys intravenously at doses of 0.3 to 1 mg/kg formulated as solutions using solubilizers such as PEG400 in well-tolerated amounts.
(§2) Studies may also have been performed as cassette administrations of up to 3 compounds given together simultaneously in low doses.
(§3) For pharmacokinetics after intravenous administration test compounds were given in the female mice and male rat as i.v. bolus and in dogs and monkeys as short term infusion (15 min). Blood samples were taken e.g. at 2 min, 8 min, 15 min, 30 min, 45 min, 1 h, 2 h, 4 h, 6 h, 8 h and 24 h after dosing from the vena jugularis (mouse, rat) or vena saphena (dog, monkey). […] PK parameters were calculated by non-compartmental analysis using a PK calculation software (e.g. Phoenix WinNonlin®, Certara USA, Inc.).
(§4) PK parameters derived from concentration-time profiles after i.v.: CLplasma (in L/kg/h): Total plasma clearance of test compound calculated by dose (in μg/kg) divided by area under the concentration-time curve from t=0 h to infinity (extrapolated) (AUCinf in μg*h/L); CLblood: Total blood clearance of test compound: CLplasma*Cp/Cb (in L/kg/h) with Cp/Cb being the ratio of test compound concentrations in plasma and blood. […]

In data set [2] the target is human full length PDE3B (Homo sapiens (Human), UniProt Q13370). The data set is described as follows: PDE3B enzyme inhibition (3H-cAMP Scintillation Proximity Assay). It is filed as biochemical. As to conditions: Sf9 cell extract, 60 min room temperature. As for the experimental part: (§5) The commercially available 3H-cAMP Scintillation Proximity Assay (SPA, Perkin Elmer) system was used for enzyme inhibition studies. For the determination of the in vitro effect of example compounds on the PDE3B reactions 2 μl of the respective example compound solution in DMSO (serial dilutions) were placed in wells of microtiter plates (Isoplate-96/200W; Perkin Elmer). 50 μl of a dilution of PDE3B cell extract from Sf9 cells overexpressing human full length PDE3B (SB Drug Discovery, UK) in buffer A (50 mM Tris/HCl pH 7.5, 8.3 mM MgCl2, 1.7 mM EDTA, 0.2% BSA) was added. The dilution of the PDE3B cell extract was chosen such that the reaction kinetics was linear and less than 70% of the substrate was consumed (typical dilution 1:6000). The reaction was started by addition of 50 μl (0.025 μCi) of 1:2000 in buffer A w/o BSA diluted substrate [8-3H]adenosine 3′, 5′-cyclic phosphate (1 μCi/μl; Perkin Elmer). After incubation at room temperature for 60 min, the reaction was stopped by addition of 25 μl of a suspension containing 18 mg/ml yttrium scintillation proximity beads (Perkin Elmer) in water. The microtiter plates were sealed and measured in a Microbeta scintillation counter (PerkinElmer Wallac). IC50 values were determined from sigmoidal curves by plotting percentage PDE3B activity vs log compound concentration.
Chain of human full length PDE3B (Q13370 whole entry): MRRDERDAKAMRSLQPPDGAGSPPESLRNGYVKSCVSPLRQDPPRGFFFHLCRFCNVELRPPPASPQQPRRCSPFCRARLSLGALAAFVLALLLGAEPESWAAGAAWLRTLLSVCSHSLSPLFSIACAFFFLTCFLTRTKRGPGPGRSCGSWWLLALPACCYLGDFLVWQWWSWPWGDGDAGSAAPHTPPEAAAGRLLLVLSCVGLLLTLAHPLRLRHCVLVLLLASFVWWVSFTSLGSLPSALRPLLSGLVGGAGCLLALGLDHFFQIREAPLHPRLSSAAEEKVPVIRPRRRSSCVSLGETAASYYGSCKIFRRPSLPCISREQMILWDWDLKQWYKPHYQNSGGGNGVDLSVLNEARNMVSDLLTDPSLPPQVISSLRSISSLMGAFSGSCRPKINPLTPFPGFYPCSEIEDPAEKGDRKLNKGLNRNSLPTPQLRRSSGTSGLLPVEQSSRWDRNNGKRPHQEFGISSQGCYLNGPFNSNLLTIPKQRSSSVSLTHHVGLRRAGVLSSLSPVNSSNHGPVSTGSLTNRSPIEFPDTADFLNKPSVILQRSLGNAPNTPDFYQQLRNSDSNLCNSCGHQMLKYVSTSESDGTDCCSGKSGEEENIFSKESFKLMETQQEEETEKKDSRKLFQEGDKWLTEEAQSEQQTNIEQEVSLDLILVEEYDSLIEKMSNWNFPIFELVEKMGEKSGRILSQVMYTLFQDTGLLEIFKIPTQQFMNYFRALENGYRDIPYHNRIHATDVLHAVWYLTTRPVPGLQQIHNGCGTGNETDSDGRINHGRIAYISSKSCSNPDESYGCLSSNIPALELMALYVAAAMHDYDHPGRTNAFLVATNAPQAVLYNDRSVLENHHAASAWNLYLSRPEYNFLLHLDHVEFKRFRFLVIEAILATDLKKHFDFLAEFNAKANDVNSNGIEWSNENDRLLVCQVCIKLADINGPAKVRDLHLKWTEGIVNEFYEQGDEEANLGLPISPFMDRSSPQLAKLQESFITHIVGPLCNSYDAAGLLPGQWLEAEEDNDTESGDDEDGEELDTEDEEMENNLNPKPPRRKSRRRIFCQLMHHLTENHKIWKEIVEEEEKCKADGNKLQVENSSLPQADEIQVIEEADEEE
(In general: Scintillation proximity formats need no separation of bound from free tracer.)

The subject of data set [3] is IGR-37 melanoma xenograft. The data set is described as follows: In vivo xenotransplantation model of human cancer. Details: species or system mice. The settings on record: for T/C: IGR-37 Melanoma, mean final tumor weight treatment vs control, study end. The source says:
The anti-tumor activity of Example 1, ((5S)-5-methyl-6-{3-(trifluoromethyl)-4-[3-(trifluoromethyl)-1H-pyrazol-1-yl]phenyl}-4,5-dihydro-1,2,4-triazin-3(2H)-one), was examined in murine xenotransplantation models of human cancer. For this purpose, mice were implanted subcutaneously with tumor cells. At a mean tumor size of 20-40 mm^2 animals were randomized into treatment and control groups (at least n=10 animals/group) and treatment started with vehicle only or Example 1 (formulation: 90% PEG400/10% Ethanol; application route: per os (“p.o.”), orally). The oral application volume was 10 ml/kg. In the case of twice daily treatments, the time interval between two applications per day was 6-7 h. The tumor size and the body weight were determined at least weekly. The tumor area was detected by means of an electronic caliper [length (mm)×width (mm)]. The experiment was ended when the tumors of the vehicle control reached the pre-determined ethical endpoint based on German and European animal welfare regulations. In vivo anti-tumor efficacy is presented as T/C ratio at study end (Treatment/Control; mean tumor area or weight of treatment group/mean tumor area or weight of control group) in Table 7. A compound having a T/C below 0.5 is defined as active (i.e., effective). Statistical analysis was assessed using SigmaStat software. A one-way analysis of variance was performed and differences to the control were compared by a pair-wise comparison procedure (Dunn's method).

A short description of data set [4]: In vivo pharmacokinetics in rats (i.v.). As to conditions: Rat/male/Wistar, 0.5 mg/kg i.v., Plasma 95% + EtOH 4% + DMSO 1%. As to the method:
as §1, §2, §3, §4

Data set [5] addresses human full length PDE3A (Homo sapiens (Human), UniProt Q14432). The data set is described as follows: PDE3A enzyme inhibition (3H-cAMP Scintillation Proximity Assay). It is filed as biochemical. As to conditions: Sf9 cell extract, 60 min room temperature. As to the method: as §5, with “PDE3A” for “PDE3B”, “1:5000).” for “1:6000).”

The source of these data is patent US20250170136A1, “1,2,4-TRIAZIN-3(2H)-ONE COMPOUNDS FOR THE TREATMENT OF HYPERPROLIFERATIVE DISEASES” (BAYER AKTIENGESELLSCHAFT, priority 2019, published 2025).

Structures are written as SMILES. Marks after values point to notes of the source that are not given here.

By IC50 is commonly meant the concentration that inhibits the measured activity by half. A higher IC50 goes with weaker potency in that assay.

Chain of human full length PDE3A (Q14432 whole entry): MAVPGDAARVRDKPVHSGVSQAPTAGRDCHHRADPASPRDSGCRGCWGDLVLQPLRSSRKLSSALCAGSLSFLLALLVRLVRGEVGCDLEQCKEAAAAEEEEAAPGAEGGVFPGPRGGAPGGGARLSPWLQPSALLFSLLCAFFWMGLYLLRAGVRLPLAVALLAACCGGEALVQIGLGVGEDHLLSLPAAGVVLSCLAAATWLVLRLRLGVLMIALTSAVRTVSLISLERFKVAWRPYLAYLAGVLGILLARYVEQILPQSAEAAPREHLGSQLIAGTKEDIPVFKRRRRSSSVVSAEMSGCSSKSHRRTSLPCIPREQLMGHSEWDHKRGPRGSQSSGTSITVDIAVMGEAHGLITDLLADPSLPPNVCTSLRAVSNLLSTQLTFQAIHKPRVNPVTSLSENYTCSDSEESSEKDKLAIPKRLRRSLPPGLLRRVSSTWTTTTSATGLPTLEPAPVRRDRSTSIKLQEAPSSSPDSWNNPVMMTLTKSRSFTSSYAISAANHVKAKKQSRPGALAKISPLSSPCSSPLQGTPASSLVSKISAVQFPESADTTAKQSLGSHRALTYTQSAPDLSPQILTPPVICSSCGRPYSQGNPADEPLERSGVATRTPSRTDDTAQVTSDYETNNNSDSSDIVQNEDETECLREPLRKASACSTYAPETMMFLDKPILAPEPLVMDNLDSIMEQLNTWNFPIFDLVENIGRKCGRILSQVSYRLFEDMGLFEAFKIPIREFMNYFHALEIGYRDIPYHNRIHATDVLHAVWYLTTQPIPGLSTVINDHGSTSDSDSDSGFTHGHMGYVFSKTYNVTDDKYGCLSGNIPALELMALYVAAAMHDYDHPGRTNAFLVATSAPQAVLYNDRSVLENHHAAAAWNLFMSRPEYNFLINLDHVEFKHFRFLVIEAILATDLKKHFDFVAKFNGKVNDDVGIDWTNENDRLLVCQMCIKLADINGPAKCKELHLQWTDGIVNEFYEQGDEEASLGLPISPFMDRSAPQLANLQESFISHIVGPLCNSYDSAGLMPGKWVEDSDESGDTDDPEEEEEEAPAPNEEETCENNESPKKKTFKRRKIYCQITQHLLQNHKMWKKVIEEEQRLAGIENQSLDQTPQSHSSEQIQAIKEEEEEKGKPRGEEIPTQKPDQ

Regarding `C[C@@H]1NC(=O)NN=C1c1ccc(-n2ccc(C(F)(F)F)n2)c(C(F)(F)F)c1` [Example 1, (5S)-5-methyl-6-{3-(trifluoromethyl)-4-[3-(trifluoromethyl)-1H-pyrazol-1-yl]phenyl}-4,5-dihydro-1,2,4-triazin-3(2H)-one], the CLblood in data set [1] amounted to 4.5 mL/min/kg; in data set [4], 3.67 mL/min/kg. Also, the IC50 in data set [2] was 0.081 µM; in data set [5] it was 0.091 µM. Besides, the T/C in data set [3] (1 mg/kg 2QD p.o.) was 0.06 *; in data set [3] (2 mg/kg 2QD p.o.), 0.06 *; in data set [3] (4 mg/kg 2QD p.o.) it was 0.06 *; in data set [3] (4 mg/kg QD p.o.), 0.07 *. The “anti-tumor efficacy (reduction of tumor area)” value in data set [3] (xenograft model of human tumors, melanoma, monotherapy) is reported as “effective in reduction of tumor area in melanoma”.
